The target in test [1] is T1, Vitronectin receptor αVβ3 (Homo sapiens, UniProt P05106+P06756).
T1 construct: expressed in transfected cells; host or cells: 512P5 cells (plasma membrane preparation)
Kind of test: Vitronectin Receptor αVβ3 Binding Assay. The following applies: for IC50: read-out: VnR (IC50μM).

The test system of test [2] is thyro-parathyroidectomized (TPTX) rats. Kind of test: PTH-induced hypercalcemia of thyroparathyroidectomized male rats. Type of test: in vivo, rat. The following applies: 100 mg/kg; for inhibition in vivo at 100 mg/kg: Rattus norvegicus, sc. The procedure:
Effects of test compounds on PTH-induced hypercalcemia of thyroparathyroidectomized male rats
Male thyro-parathyroidectomized (TPTX) rats (Charles River) were randomly assigned to groups of 7 rats/group. Following a baseline serum calcium determination an Alzet 1003D minipump (Alza Corporation, Palo Alto, Calif.) loaded with 0.3 mg/ml PTH (Bachem, Philadelphia, Pa.) was implanted subcutaneously in each rat. For evaluation of prophylactic effects of a test drug, another minipump with appropriate concentration of the test drug solution was implanted subcutaneously at a site away from PTH minipump. Alternatively, test drugs were administered by oral gavage as a solution or uniform suspension in an appropriate medium depending on the physical properties of the test compound. A group of 7 unimplanted TPTX rats was set aside as a normal control group. Twenty hours after minipump implantation blood was collected from each rat to confirm the presence of hypercalcemia (judged by elevation of serum calcium levels, 2 SD>normal non-implanted level). At various intervals between 0.5 and 24 hours after dosing (usually one to three time points), blood was collected from each rat and the serum evaluated for total calcium. Serum calcium levels were measured using the Nova 7+7 calcium auto analyzer spectrophotometrically using the Sigma test kit (#587A). Test results were determined by the difference in serum calcium between vehicle and treatment group following PTH administration, using a one-way analysis of variance with Dunnett's test or other multiple comparison methods.

A further test addresses T2, αVβ3 integrin (Homo sapiens, UniProt P05106+P06756).
T2 construct: αVβ3-expressing cell lines are maintained by standard tissue culture techniques; endogenous in cells; host or cells: αVβ3-expressing cell lines
The experiment in a line: Osteopontin-αVβ3 Cell Attachment Assay. Type of test: cell-based. The procedure: Osteopontin-αVβ3 Cell Attachment Assay The purpose of this assay is to measure the effect of various compounds on the RGD-dependent attachment of cells to osteopontin mediated by the αVβ3 integrin. […] Following the blocking period, wells are aspirated and washed once with D-PBS. Cell Suspension αVβ3-expressing cell lines are maintained by standard tissue culture techniques. […] The cells are pelleted by low-speed centrifugation and washed three times with 0.5 mg/mL trypsin inhibitor in D-PBS (Sigma). The final cell pellet is resuspended in cell suspension media at a concentration of 10^6 cells/mL. Attachment Assay Incubation: […] of diluted test compound is added to osteopontin-coated wells (in triplicate) followed by […] of cell suspension; background cell attachment is determined in uncoated wells. The plate is incubated at 25° C. in a humidified air atmosphere for 1.5 hours. Following the incubation period, the wells are gently aspirated and washed once with D-PBS. Cell Number Detection: The number of cells attached is determined by an MTT dye conversion assay (Promega) according to the manufacturer's instructions. Briefly, MTT dye is diluted in cell suspension media (15:85) and […] is added to each well. […] The assay plates are covered and incubated at 37° C. in a humidified air atmosphere overnight. […] Reference Compounds Various […]

Where a name gives a salt, the structure may show the parent alone. A value given as a limit tells only on which side of the number the result lay.

T1 sequence (P06756 31-889 limits assumed): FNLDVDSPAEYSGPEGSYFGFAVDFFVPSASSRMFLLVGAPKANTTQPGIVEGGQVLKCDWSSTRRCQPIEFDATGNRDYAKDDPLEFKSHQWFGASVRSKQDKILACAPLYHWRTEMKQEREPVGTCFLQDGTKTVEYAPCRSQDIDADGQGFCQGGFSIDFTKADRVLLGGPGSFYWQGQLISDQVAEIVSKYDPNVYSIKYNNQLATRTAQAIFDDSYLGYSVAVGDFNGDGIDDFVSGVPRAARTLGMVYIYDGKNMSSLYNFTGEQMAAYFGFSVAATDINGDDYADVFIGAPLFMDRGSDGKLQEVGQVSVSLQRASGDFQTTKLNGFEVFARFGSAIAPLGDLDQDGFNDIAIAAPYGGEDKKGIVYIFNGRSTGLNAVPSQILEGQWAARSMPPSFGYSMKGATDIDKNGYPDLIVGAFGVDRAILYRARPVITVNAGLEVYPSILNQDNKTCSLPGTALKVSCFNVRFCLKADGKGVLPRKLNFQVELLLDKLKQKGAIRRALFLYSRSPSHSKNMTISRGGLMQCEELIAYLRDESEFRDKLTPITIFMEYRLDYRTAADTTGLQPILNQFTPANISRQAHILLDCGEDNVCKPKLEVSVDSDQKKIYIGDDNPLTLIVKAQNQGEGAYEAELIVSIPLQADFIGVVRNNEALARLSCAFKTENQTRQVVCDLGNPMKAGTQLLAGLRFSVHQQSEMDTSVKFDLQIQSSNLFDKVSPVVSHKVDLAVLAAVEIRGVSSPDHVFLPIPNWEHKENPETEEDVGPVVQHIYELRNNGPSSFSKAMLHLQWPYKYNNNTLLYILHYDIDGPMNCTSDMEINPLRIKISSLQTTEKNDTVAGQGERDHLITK
T1 sequence (P06756 891-1048 partner limits assumed): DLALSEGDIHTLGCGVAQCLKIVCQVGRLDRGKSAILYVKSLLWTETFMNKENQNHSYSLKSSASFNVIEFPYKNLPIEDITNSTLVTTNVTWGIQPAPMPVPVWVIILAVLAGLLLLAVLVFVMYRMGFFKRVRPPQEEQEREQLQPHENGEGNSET
T1 sequence (P05106 27-788): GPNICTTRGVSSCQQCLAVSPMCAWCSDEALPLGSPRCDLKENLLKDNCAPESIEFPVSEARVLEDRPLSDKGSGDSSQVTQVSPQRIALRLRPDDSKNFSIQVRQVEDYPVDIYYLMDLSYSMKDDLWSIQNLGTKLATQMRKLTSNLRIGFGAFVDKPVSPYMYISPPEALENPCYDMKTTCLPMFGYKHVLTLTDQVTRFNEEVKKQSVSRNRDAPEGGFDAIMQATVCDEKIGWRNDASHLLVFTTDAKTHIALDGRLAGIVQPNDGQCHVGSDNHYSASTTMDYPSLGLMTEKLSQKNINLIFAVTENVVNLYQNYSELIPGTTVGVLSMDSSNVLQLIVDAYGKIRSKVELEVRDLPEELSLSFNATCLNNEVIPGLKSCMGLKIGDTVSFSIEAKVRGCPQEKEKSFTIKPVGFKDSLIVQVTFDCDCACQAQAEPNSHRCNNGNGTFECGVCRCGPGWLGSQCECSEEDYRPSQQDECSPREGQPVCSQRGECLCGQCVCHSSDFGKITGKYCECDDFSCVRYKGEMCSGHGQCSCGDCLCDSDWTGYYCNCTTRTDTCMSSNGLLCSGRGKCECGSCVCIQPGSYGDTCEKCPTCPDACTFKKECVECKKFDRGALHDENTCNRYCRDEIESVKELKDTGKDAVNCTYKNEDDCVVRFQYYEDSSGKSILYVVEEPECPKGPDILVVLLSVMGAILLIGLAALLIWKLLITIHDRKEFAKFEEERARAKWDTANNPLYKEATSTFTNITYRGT
T2 sequence (P06756 31-889 limits assumed): as the sequence (P06756 31-889 limits assumed) above
T2 sequence (P06756 891-1048 partner limits assumed): as the sequence (P06756 891-1048 partner limits assumed) above
T2 sequence (P05106 27-788): as the sequence (P05106 27-788) above

Turning to `O=C(NCCOc1ccc(C(=O)NC[C@H](NC(=O)OCc2ccccc2)C(=O)O)c(O)c1)NCc1ccc(Cl)cc1` [Example 263, (2S)-2-{[(benzyloxy)carbonyl]amino}-3-({4-[2-({[(4-chlorobenzyl)amino]-carbonyl}-amino)ethoxy]-2-hydroxybenzoyl}amino)propanoic acid], the IC50 in test [1] was determined as 29 µM.

For `CN(C)c1ccc(CNC(=O)NCCOc2ccc(C(=O)NC[C@H](NC(=O)OCc3ccccc3)C(=O)O)c(O)c2)cc1` [Example 264, (2S)-2-{[(benzyloxy)carbonyl]amino}-3-[(4-{2-[({[4-(dimethylamino)benzyl]-amino}carbonyl)amino]ethoxy}-2-hydroxybenzoyl)amino]propanoic acid], in test [1], the IC50 turned out to be 59.3 µM. On the same count and under the same terms, to `NS(=O)(=O)c1ccc(CNC(=O)NCCOc2ccc(C(=O)NC[C@H](NC(=O)OCc3ccccc3)C(=O)O)c(O)c2)cc1` [Example 265, (2S)-3-[(4-{2-[({[4-(aminosulfonyl)benzyl]amino}carbonyl)amino]ethoxy}-2-hydroxybenzoyl)amino]-2-{[(benzyloxy)carbonyl]amino}propanoic acid] belongs 12.9 µM; to `O=C(NCCOc1ccc(C(=O)NC[C@H](NC(=O)OCc2ccccc2)C(=O)O)c(O)c1)NCc1ccc(OC(F)(F)F)cc1` [Example 266, (2S)-2-{[(benzyloxy)carbonyl]amino}-3-[(2-hydroxy-4-{2-[({[4-(trifluoromethoxy)-benzyl]amino}carbonyl)amino]ethoxy}benzoyl)amino]propanoic acid], 29.6 µM; to `O=C(NCCOc1ccc(C(=O)NC[C@H](NC(=O)OCc2ccccc2)C(=O)O)c(O)c1)NCc1ccccc1Cl` [Example 267, (2S)-2-{[(benzyloxy)carbonyl]amino}-3-({4-[2-({[(2-chlorobenzyl)amino]carbonyl}-amino)ethoxy]-2-hydroxybenzoyl}amino)propanoic acid], 10.2 µM. For `Cc1ccccc1CNC(=O)NCCOc1ccc(C(=O)NC[C@H](NC(=O)OCc2ccccc2)C(=O)O)c(O)c1` [Example 268], the IC50 in test [1] is 33.4 µM. Consider `O=C(NCCOc1ccc(C(=O)NC[C@H](NC(=O)OCc2ccccc2)C(=O)O)c(O)c1)NCc1ccccc1Br` [Example 269, (2S)-2-{[(benzyloxy)carbonyl]amino}-3-({4-[2-({[(2-bromobenzyl)amino]-carbonyl}-amino)ethoxy]-2-hydroxybenzoyl}amino)propanoic acid], for which the IC50 in test [1] came to 21.2 µM. Take `O=C(NCCOc1ccc(C(=O)NC[C@H](NC(=O)OCc2ccccc2)C(=O)O)c(O)c1)NCc1ccc(Cl)cc1Cl` [Example 270, (2S)-2-{[(benzyloxy)carbonyl]amino}-3-({4-[2-({[(2,4-dichlorobenzyl)amino]-carbonyl}amino)ethoxy]-2-hydroxybenzoyl}amino)propanoic acid]: the IC50 in test [1] came out at 21.7 µM. On to `Nc1ccccc1CNC(=O)NCCOc1ccc(C(=O)NC[C@H](NC(=O)OCc2ccccc2)C(=O)O)c(O)c1` [Example 271, (2S)-3-({4-[2-({[(2-aminobenzyl)amino]carbonyl}amino)ethoxy]-2-hydroxybenzoyl}-amino)-2-{[(benzyloxy)carbonyl]amino}propanoic acid], for which the IC50 in test [1] worked out at 13.7 µM. Same read-out and setting: to `O=C(NCCOc1ccc(C(=O)NC[C@H](NC(=O)OCc2ccccc2)C(=O)O)c(O)c1)NCc1ccccn1` [Example 272, (2S)-2-{[(benzyloxy)carbonyl]amino}-3-({2-hydroxy-4-[2-({[(pyridin-2-ylmethyl)-amino]carbonyl}amino)ethoxy]benzoyl}amino)propanoic acid] belongs 10.6 µM. Turning to `CCOC(=O)[C@H](CNC(=O)c1ccc(OCCNc2ncccn2)cc1O)NS(=O)(=O)c1ccccc1` [Example 273], the “TPTX (% inhibition)” value in test [2] (s.c.) is 57%.

By inhibition in vivo is commonly meant the change of the read-out against control, counted positive when it falls. With `CCOC(=O)CC(NC(=O)c1ccc(OCCNC(=N)N)cc1O)c1ccccc1` (stereo not shown) [Example 279, 3-[4-(2-Guanidinoethoxy)-2-hydroxy-benzoylamino]-3-phenylpropanoic acid ethyl ester hydrochloride], the IC50 in test [1] turned out to be 0.013 µM. For the same compound, the inhibition in vivo at 100 mg/kg in test [2] was 59%. `CCOC(=O)CC(NC(=O)c1ccc(OCCNc2ncccn2)cc1O)c1cccnc1` (stereo not shown) [Example 281, 3-[2-Hydroxy-4-[2-(pyrimidin-2ylamino)ethoxy]-benzoylamino]-3-pyridine-3-ylpropionic acid ethyl ester]: the “VnR (IC50μM)” value in test [1] was “inactive”.

`O=C(O)CC(NC(=O)c1ccc(OCCNC2=NCCCN2)cc1O)c1cccnc1` (stereo not shown) [Example 282, 3-[2-Hydroxy-4-[2-(3,4,5,6-tetrahydropyrimidine-2ylamino)-ethoxy]benzoylamino]-3-pyridin-3-ylpropionic acid]: the “VnR, % @ 100” value in test [1] (@ 100) is on record as −42% @ 100. The compound also came in with an IC50 on αVβ3 integrin of 33 µM. For the compound `CCOC(=O)CC(NC(=O)c1ccc(OCCNC2=NCCCN2)cc1O)c1cccnc1` (stereo not shown) [Example 283, 3-[2-Hydroxy-4-[2-(3,4,5,6-tetrahydropyrimidin-2-ylamino)ethoxy]benzoylamino]-3-pyridin-3-ylpropionic acid ethyl ester dihydrocloride], in test [1], the IC50 came out at 123 µM.

On to `N=C(N)NCCOc1ccc(C(=O)NC(CC(=O)O)c2cccnc2)c(O)c1` (stereo not shown) [Example 285, 3-[4-(2-Guanidino-ethoxy)-2-hydroxybenzoyl-amino]-3-pyridin-3-yl-propanoic acid], for which the IC50 in test [1] is 5 µM; against αVβ3 integrin, 56 µM. Consider `O=C(O)CC(NC(=O)c1ccc(OCCNc2ncccn2)cc1O)c1cccnc1` (stereo not shown) [Example 286, 3-[2-hydroxy-4-[2-(pyrimidin-2-ylamino)-ethoxy]benzoylamino]-3-pyridin-3-yl-propanoic acid], for which the IC50 in test [1] came to 2.8 µM; at αVβ3 integrin, 86 µM. Regarding `O=C(O)CC(NC(=O)c1ccc(OCCNc2ncccn2)cc1O)c1ccccc1` (stereo not shown) [Example 287, 3-[2-hydroxy-4-[2-(pyrimidin-2-ylamino)-ethoxy]benzoyl-amino]-3-phenyl-propanoic acid hydrochloride], the IC50 in test [1] amounted to 0.26 µM. For the compound `O=C(O)CC(NC(=O)c1ccc(OCCNC2=NCCCN2)cc1O)c1ccccc1` (stereo not shown) [Example 291, 3-[2-hydroxy-4-[2-(3,4,5,6-tetrahydropyrimidin-2-ylamino)ethoxy]-benzoylamino]-3-phenyl-propanoic acid], the IC50 in test [1] was found to be 0.44 µM; on αVβ3 integrin, 28 µM. In test [2], the inhibition in vivo at 100 mg/kg was 41%. Regarding `CCOC(=O)CC(NC(=O)c1ccc(OCCNC2=NCCCN2)cc1O)c1ccccc1` (stereo not shown) [Example 292, 3-[2-hydroxy-4-[2-(3,4,5,6-tetrahydropyrimidin-2-ylamino)ethoxy]-benzoylamino]-3-phenyl-propanoic acid ethyl ester hydrochloride], in test [1], the IC50 was 0.115 µM. In addition, the inhibition in vivo at 100 mg/kg in test [2] is 111%. As to `NC(CNC(=O)c1ccc(OCCNC2=NCCCN2)cc1O)C(=O)O` (stereo not shown) [Example 295, 2-Amino-3-[2-hydroxy-4-[2-(3,4,5,6-tetra-hydropyrimidin-2-ylamino)ethoxy]-benzoylamino]propionic acid dihydrochloride], the IC50 in test [1] was 0.0018 µM. In the case of “(2S)-3-({2-hydroxy-4-[2-(pyrimidin-2-ylamino)ethoxy]benzoyl3 amino)-2-{[(4-methoxyanilino)carbonyl]amino}propanoic acid [Example 74]”, in test [1], the IC50 is over 1 µM. Regarding “(2S)-3-({2-hydroxy-4-[2-(pyrimidin-2-ylamino)ethoxy]benzoyl}amino)-2-{[1-naphthylamino)carbonyl]amino}propanoic acid [Example 91]”, the IC50 in test [1] is over 1 µM. For the compound GRGESP [reference compound], the “IC50 (μM)” value in test [1] (reference peptides, 125I-Echistatin 50 pM, 512P5 (αVβ3-overexpressing) cell membranes) is “inactive at 100 μM”.

Values taken from patent US20030186967A1, “Acylresorcinol derivatives are selective vitronectin receptor inhibitors” (American Home Products Corporation, priority 1998, published 2003).
